Laboratory results from PubChem BioAssay (NCI).
Where “and” joins values, the source holds several entries; their conditions need not be identical. Identical values can stand only once.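 Dose response: 5 concentrations. Exposure: 48 h. Format: 96-well plates. Endpoint: linear interpolation; highest concentration if not reached. GI50 marks 50% less growth. TGI marks complete inhibition of growth.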

Key:
Assay in all cases: NCI anticancer screen, dose series, 48 h
A498 renal = tested on: A498 renal
IGROV1 ovarian = tested on: IGROV1 ovarian
TK-10 renal = tested on: TK-10 renal
MDA-MB-231 breast = tested on: MDA-MB-231 breast
SNB-75 CNS = tested on: SNB-75 CNS
RXF 393 renal = tested on: RXF 393 renal
BT-549 breast = tested on: BT-549 breast
PC-3 prostate = tested on: PC-3 prostate
HCC-2998 colon = tested on: HCC-2998 colon
SR leukemia = tested on: SR leukemia

Row | Compound | TGI (A498 renal) | TGI (IGROV1 ovarian) | TGI (TK-10 renal) | TGI (MDA-MB-231 breast) | TGI (SNB-75 CNS) | TGI (RXF 393 renal) | TGI (BT-549 breast) | TGI (PC-3 prostate) | GI50 (RXF 393 renal) | GI50 (A498 renal) | TGI (HCC-2998 colon) | GI50 (IGROV1 ovarian) | GI50 (TK-10 renal) | GI50 (SNB-75 CNS) | TGI (SR leukemia)
1 | C/C(=N/S(=O)(=O)c1ccc(Cl)c(Cl)c1)OCC(C)(C)C | > 100 µM | > 100 µM | > 100 µM | > 100 µM | > 100 µM | > 100 µM | > 100 µM | > 100 µM |  |  |  |  |  |  | 
2 | COc1ccc2[nH]c(-c3ccccn3)cc(=O)c2c1 |  | > 100 µM | > 100 µM |  | 88 µM | 33.8 µM |  |  | 2.49 µM |  |  |  |  |  | 
3 | O=C1c2cccc3cc([N+](=O)[O-])cc(c23)C(=O)N1CCNCCNCCNCCN1C(=O)c2cccc3cc([N+](=O)[O-])cc(c23)C1=O | 0.227 µM | 0.205 µM | 0.321 µM |  | 0.133 µM | 0.269 µM and 0.169 µM |  |  | 0.0162 µM | < 0.001 µM | 0.226 µM |  |  |  | 
4 | CCN1C2=NC(=O)N(C)C(=O)C2(Cl)C(C(SC)S(=O)(=O)c2ccc(C)cc2)c2ccccc21 (stereo not drawn) | > 100 µM | > 100 µM | > 100 µM |  | 53.7 µM |  |  |  |  |  | > 100 µM |  |  |  | 
5 | O=S(=O)([O-])c1cccc2cccc(N=Cc3ccccc3[O-])c12.O=S(=O)([O-])c1cccc2cccc(N=Cc3ccccc3[O-])c12.[O]=[U]=[O] | > 100 µM | > 100 µM | 67.3 µM |  | 57.9 µM | 25.1 µM |  |  | 10.7 µM | > 100 µM |  | 70.6 µM | 21.3 µM | 23.3 µM | 
6 | [N-]=[N+]=NC(c1cn(C2CC(O)C(CO)O2)c(=O)[nH]c1=O)C(Br)I (stereo not drawn) |  | > 100 µM | > 100 µM |  | > 100 µM | > 100 µM |  |  |  |  | > 100 µM |  |  |  | > 100 µM
7 | Cc1cccc(-c2nc3c(C(=O)NCCN(C)C)cccc3[nH]2)c1 | 3.34 µM | 4.06 µM | 4.95 µM |  | 3.73 µM | 2.47 µM |  |  |  |  | 1.95 µM |  |  |  | 
8 | CC(=O)CCCCCCCCCCCC[C@@H]1CC[C@H](C)[C@H](O)N1 |  | > 100 µM | > 100 µM |  | > 100 µM | > 100 µM |  |  |  |  | > 100 µM |  |  |  | > 100 µM
9 | CCCCCCCCCCCCCCCCCC(=O)OCC(CN(C)CCN(C)C)OC(=O)CCCCCCCCCCCCCCCCC (stereo not drawn) | > 100 µM | > 100 µM | > 100 µM |  | > 100 µM | > 100 µM |  |  |  |  | > 100 µM |  |  |  | 64.2 µM
10 | Cc1cccc(C(C)(C)C)c1NC(=O)C(=O)C(C(=O)/C=C\c1ccccc1)C1OC(=O)c2ccccc21 (stereo not drawn) | > 100 µM | > 100 µM | > 100 µM |  | > 100 µM | > 100 µM |  |  |  |  | > 100 µM |  |  |  | > 100 µM
